Experimental findings from PubChem BioAssay (NCI) are described below.

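Method: 48-hour compound exposure of cells in 96-well plates, five concentrations, linear interpolation of endpoints. GI50 = concentration required for 50% inhibition of growth. TGI denotes the concentration required for complete inhibition of growth.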

What all share (experiment): NCI-60 cell line screen, 48 h
Experiment [1] concerns A498 renal.
For experiment [2], the system named is SK-MEL-28 melanoma.
The subject of experiment [3] is OVCAR-3 ovarian.
Experiment [4] relates to KM12 colon.
The subject of experiment [5] is HCT-116 colon.
The subject of experiment [6] is EKVX NSCLC.
Experiment [7] concerns MALME-3M melanoma.
Experiment [8] concerns HL-60(TB) leukemia.
Experiment [9] has as its system NCI-H23 lung.
The test system of experiment [10] is UACC-62 melanoma.

As for `O=C(CC12CC3CC(CC(C3)C1)C2)NCCOCCOCCOCCNC(=O)c1cc2c(o1)C(=O)c1ccccc1C2=O`, the GI50 in experiment [1] is 1.59 µM; in experiment [2], 1.7 µM; in [3], 0.395 µM; in experiment [4], 2.87 µM; in experiment [5] it was 1.87 µM; in [6], 2.23 µM. For the same molecule, the GI50 in experiment [7] is 0.157 µM; in experiment [8], 1.4 µM; in [9], 0.173 µM; in [10], 0.343 µM. Moreover, the TGI was determined as 3.12 µM in experiment [1]; 3.27 µM in [2]; 1.79 µM in [3]; 10.3 µM in [4]; 6.33 µM in [5]; 5.29 µM in experiment [6]. Further, the TGI in experiment [7] worked out at 0.328 µM; in [8], 4.98 µM; in [9] it was 1.09 µM; in experiment [10], 1.19 µM.
As to `O=C(N/N=C/c1ccccc1Cl)c1ccccc1Nc1ccnc(C(F)(F)F)c1`, the GI50 in experiment [1] is 1.76 µM; in [2], 2.39 µM; in experiment [3], 0.832 µM; in [4], 1.99 µM; in experiment [5] it was 0.637 µM; in experiment [6], 1.65 µM. Moreover, the GI50 was 1.55 µM in experiment [7], 1.71 µM in experiment [8], 1.82 µM in experiment [9] and 0.976 µM in experiment [10]. The TGI in [1] came out at 5.99 µM; in [2], 27.6 µM; in [3], 3.68 µM; in [4], 6.66 µM; in experiment [5], 3.27 µM; in [6], 5.94 µM. In addition, the TGI came out at 4.94 µM in experiment [7], 8.18 µM in [9] and 3.72 µM in [10].
For the molecule `COc1cc2cc(C(=O)Nc3cc(N)c4ccccc4c3CCCl)[nH]c2c(OC)c1OC`, the GI50 in [1] was 0.0271 µM; in [2], 0.0923 µM; in [3], 0.0262 µM; in experiment [4], 0.0411 µM; in experiment [5] it was 0.0177 µM; in experiment [6], 0.0993 µM. The GI50 is 0.119 µM in experiment [7], 0.0361 µM in experiment [8], 0.0166 µM in experiment [9] and 0.0717 µM in experiment [10]. The TGI in experiment [1] stood at 0.19 µM; in experiment [4] it was 0.667 µM; in [5], 5.83 µM; in [6] it was 0.517 µM; in experiment [7], 0.274 µM; in experiment [8] it was 0.237 µM. Further, the values for the TGI in experiment [9] and in experiment [10] were 0.264 µM and 0.154 µM, respectively.
Regarding `O=C1NC(=S)NC(=O)C1=Cc1cccc2cc3ccccc3cc12`, the TGI in experiment [1] was 3.63 µM; in experiment [2], 6.58 µM; in experiment [3] it was 3.42 µM; in experiment [4] it was 4.08 µM; in [5], 3.74 µM; in experiment [6] it was 8.9 µM. The TGI in [7] was found to be 4.17 µM; in [8], 5.67 µM; in [9], 4.62 µM; in experiment [10], 3.53 µM.
For the molecule `c1ccc2c(c1)-c1ccccc1C2N1CC2CCC(CC2)C1`, the TGI in [1] came to 40.1 µM; in experiment [2], 96.1 µM; in experiment [3], 40.5 µM; in experiment [4] it was 39.9 µM; in experiment [5] it was 46.9 µM; in [6], 51 µM. In addition, the TGI in experiment [7] was 27.6 µM; in experiment [8] it was 11.2 µM; in experiment [9] it was 47.5 µM; in experiment [10], 44.5 µM.
Consider `C=CCN1C=CC(=O)[C@H](O[Si](C)(C)C(C)(C)C)[C@@H]1/C=C/c1ccccc1`, for which the GI50 in experiment [1] is 13.2 µM; in [2], 15 µM; in experiment [3], 14 µM; in experiment [4] it was 13.1 µM; in experiment [5] it was 6.96 µM; in experiment [6], 14 µM. The GI50 in experiment [7] was 17.3 µM; in [8], 3.36 µM; in experiment [9] it was 13.8 µM; in experiment [10] it was 12.1 µM. Also, the TGI came to 26.1 µM in experiment [1]; 28.6 µM in experiment [2]; 27.8 µM in experiment [3]; 28.7 µM in experiment [4]; 19.9 µM in experiment [5]; 40.7 µM in experiment [6]. Also, the TGI came to 34.3 µM in experiment [7], 20.2 µM in [8], 27.9 µM in [9] and 26.7 µM in [10].
Consider `CCn1c(O)c(C=N)c(=O)n(CC)c1=O`, for which the TGI in [1], in [2], in [3], in [4], in experiment [5] and in [6] was > 100 µM throughout. Also, the TGI in [7], in experiment [8], in experiment [9] and in experiment [10] was > 100 µM each time.
With `CCOC(=O)C1=C(Nc2ccc(Cl)cc2Cl)OC/C1=N\NS(=O)(=O)c1ccc(C)cc1`, the TGI in experiment [1], in experiment [2], in [3], in experiment [4], in [5] and in experiment [6] was > 100 µM throughout. The TGI in experiment [7], in [8], in [9] and in experiment [10] was > 100 µM throughout.
As to `COc1cc2c(cc1OCCCCCCN1CCN(c3ncnc4ccccc34)CC1)N=CC1CCCN1C2=O` (stereo unspecified), the GI50 in experiment [1] was 0.15 µM; in [2] it was 0.193 µM; in experiment [3], 0.0336 µM; in experiment [4] it was 0.116 µM; in [5], 0.055 µM; in experiment [6], 0.354 µM. The GI50 in [7] was 0.158 µM; in experiment [8], 0.0782 µM; in experiment [9], 0.204 µM; in [10], 0.143 µM. The TGI in experiment [1] turned out to be 0.344 µM; in experiment [2] it was 0.51 µM; in [3], 0.088 µM; in [4], 0.375 µM; in [5], 0.282 µM; in [6] it was 2.01 µM. Also, the TGI in experiment [7] came out at 0.376 µM; in experiment [9] it was 0.677 µM; in experiment [10], 0.326 µM.
